Data taken from patent US9249154B2, “Compounds and therapeutic use thereof for protein kinase inhibition” (priority 2008, dated 2016).
Read-outs that look alike come from different tables or passages of the source.

Columns and labels:
Mouse Lung Cancer (3LL) = assay: In vitro anti-cancer cell activity (cellular toxicity, SRB and MTT methods, 72 hours); format: cell-based; details: read-out: In vitro anti-cancer cell activities IC50, Mouse Lung Cancer (3LL)
Human colon cancer HT-29 = assay: as above; format: cell-based; details: read-out: In vitro anti-cancer cell activities IC50, Human colon cancer HT-29
[1] = system: Human Gastric Cancer (BGC-823); assay: as above; format: cell-based; details: read-out: In vitro anti-cancer cell activities IC50, Human Gastric Cancer (BGC-823)
[2] = system: Human Ovarian cancer (A2780); assay: as above; format: cell-based; details: read-out: In vitro anti-cancer cell activities IC50, Human Ovarian cancer (A2780)
[3] = system: transplanted human colon cancer HT-99; assay: Effects on HT99 transplanted nude mice; format: in vivo; details: 60 mg/kg ip, d0, 1; for RTV (relative tumor volume) / TV dn: X ± SD; for TV dn: dn = 17 days after drug treatment

In the case of “2-(4-chlorophenyl)-4-(3-α-thiapyranmethy)-thieno[2,3-d]pyridazine-7-carboxylic acid amide [Compound 11]”, the IC50 (Mouse Lung Cancer (3LL)) is reported as 8.43 µM, the IC50 (Human colon cancer HT-29) is reported as 10.7 µM and the IC50 [1] is reported as 9.24 µM. For the same compound, the IC50 [2] was 11.8 µM, the T/C [3] was 113.4% and the “RTV (relative tumor volume)” value [3] was 7.52 ± 0.26. For the same compound, the TV dn [3] was 1224 ± 440 mm^3.
In the case of `NC(=O)c1nnc(CC2CCOC2)c2cc(-c3ccc(F)cc3)sc12` (centres unmarked) [Compound 23], the IC50 (Mouse Lung Cancer (3LL); Mus musculus) is reported as > 100 µM.
`NC(=O)c1nnc(CC2CCNC2)c2cc(-c3ccc(Br)cc3)sc12` (centres unmarked) [Compound 22] was tested, and the T/C [3] was 70.7%, the “RTV (relative tumor volume)” value [3] was 4.69 ± 0.71 and the TV dn [3] was 714 ± 127 mm^3.
For `NC(=O)c1nnc(CC2CCNC2)c2cc(-c3ccc(Cl)cc3)sc12` (centres unmarked) [Compound 31], the T/C [3] was 80.8%, the “RTV (relative tumor volume)” value [3] was 5.36 ± 1.94 and the TV dn [3] was 785 ± 300 mm^3.
Compound `NC(=O)c1nnc(Cc2cc[nH]c2)c2cc(-c3ccc(Cl)cc3)sc12` [Compound 14, 2-(4-chlorophenyl)-4-(3-pyrrolemethy)-thieno[2,3-d]pyridazine-7-carboxylic acid amide] has an IC50 (Mouse Lung Cancer (3LL)) of 8.59 µM, an IC50 (Human colon cancer HT-29) of 16.8 µM and an IC50 [1] of 30.5 µM. For the same compound, the IC50 [2] was 6.01 µM.
`NC(=O)c1nnc(CC2CCOC2)c2cc(-c3ccc(Cl)cc3)sc12` (centres unmarked) [Compound 24] was tested, and the IC50 (Mouse Lung Cancer (3LL); Mus musculus) was > 100 µM, the IC50 (Human colon cancer HT-29; Homo sapiens) was > 100 µM and the IC50 ([1]; Homo sapiens) was 24.6 µM. For the same compound, the IC50 ([2]; Homo sapiens) was > 100 µM.
With `NC(=O)c1nnc(Cc2cccnc2)c2cc(-c3ccc(F)cc3)sc12` [Compound 38] the IC50 (Mouse Lung Cancer (3LL); Mus musculus) was 3.13 µM.
With `NC(=O)c1nnc(CC2CCNCC2)c2cc(-c3ccc(Cl)cc3)sc12` [Compound 5, 2-(4-chlorophenyl)-4-(4-piperidinemethy)-thieno[2,3-d]pyridazine-7-carboxylic acid amide] the T/C [3] was 96.5%, the “RTV (relative tumor volume)” value [3] was 6.40 ± 0 and the TV dn [3] was 910 ± 0 mm^3.
`NC(=O)c1nnc(Cc2ccoc2)c2cc(-c3ccc(Cl)cc3)sc12` [Compound 15, 2-(4-chlorophenyl)-4-(3-furanmethy)-thieno[2,3-d]pyridazine-7-carboxylic acid amide] showed an IC50 [1] of 2.25 µM.
Compound `NC(=O)c1nnc(Cc2ccncc2)c2cc(-c3ccc(Cl)cc3)sc12` [Compound 13, 2-(4-chlorophenyl)-4-(4-pyridinemethy)-thieno[2,3-d]pyridazine-7-carboxylic acid amide] has an IC50 (Mouse Lung Cancer (3LL)) of 1.24 µM, an IC50 (Human colon cancer HT-29) of 0.73 µM and an IC50 [1] of 2.62 µM. For the same compound, the IC50 [2] was 1.18 µM.
`CN(C)C(=O)c1nnc(Cc2ccoc2)c2cc(-c3ccc(Cl)cc3)sc12` [Compound 70] was tested, and the IC50 (Mouse Lung Cancer (3LL); Mus musculus) was > 100 µM.
`NC(=O)c1nnc(CC2CCNC2)c2cc(-c3ccc(Cl)cc3)sc12` (centres unmarked) [Compound 30] was tested, and the T/C [3] was 57.0%, the “RTV (relative tumor volume)” value [3] was 3.78 ± 1.09 and the TV dn [3] was 482 ± 83 mm^3.
In the case of `CN(C)C(=O)c1nnc(CC2CCCOC2)c2cc(-c3ccc(Cl)cc3)sc12` (centres unmarked) [Compound 19], the T/C [3] is reported as 68.3%, the “RTV (relative tumor volume)” value [3] is reported as 4.53 ± 0.82 and the TV dn [3] is reported as 663 ± 86 mm^3.
